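Cells were grown in 96-well plates and exposed to each compound for 48 hours at five concentrations; endpoints were interpolated linearly between bracketing concentrations, or set to the highest concentration if not reached. GI50 is the concentration that inhibits growth by half.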 Calls of active or inactive are those of the source. Cut-off read from the data, not from the text of the source: active = GI50 up to about 1.1 µM and inactive = higher.
What was measured:
Test in all cases: NCI tumour cell line growth inhibition, 48 h
A549 = tested on: A549
COLO 205 = tested on: COLO 205
DU-145 = tested on: DU-145
HCT-116 = tested on: HCT-116
HL-60 = tested on: HL-60
HOP-62 = tested on: HOP-62
HOP-92 = tested on: HOP-92
IGROV-1 = tested on: IGROV-1
M14 = tested on: M14
MOLT-4 = tested on: MOLT-4
OVCAR-5 = tested on: OVCAR-5
OVCAR-8 = tested on: OVCAR-8
RPMI-8226 = tested on: RPMI-8226
SF-268 = tested on: SF-268
SK-MEL-28 = tested on: SK-MEL-28
SK-MEL-5 = tested on: SK-MEL-5
T47D = tested on: T47D
TK-10 = tested on: TK-10
UACC-257 = tested on: UACC-257
UACC-62 = tested on: UACC-62

Compound | GI50 (A549) | GI50 (COLO 205) | GI50 (DU-145) | GI50 (HCT-116) | GI50 (HL-60) | GI50 (HOP-62) | GI50 (HOP-92) | GI50 (IGROV-1) | GI50 (M14) | GI50 (MOLT-4) | GI50 (OVCAR-5) | GI50 (OVCAR-8) | GI50 (RPMI-8226) | GI50 (SF-268) | GI50 (SK-MEL-28) | GI50 (SK-MEL-5) | GI50 (T47D) | GI50 (TK-10) | GI50 (UACC-257) | GI50 (UACC-62)
O=C(NCCCCCCCCNC(=O)c1cc(-c2ccccc2)nc2ccccc12)c1cc(-c2ccccc2)nc2ccccc12 | > 100 µM (inactive) | > 100 µM (inactive) | > 100 µM (inactive) | > 100 µM (inactive) | > 100 µM (inactive) | 38.8 µM (inactive) | > 100 µM (inactive) | > 100 µM (inactive) | > 100 µM (inactive) | > 100 µM (inactive) | > 100 µM (inactive) | 94 µM (inactive) | > 100 µM (inactive) | 68.9 µM (inactive) | > 100 µM (inactive) | > 100 µM (inactive) | > 100 µM (inactive) | > 100 µM (inactive) | > 100 µM (inactive) | > 100 µM (inactive)
O=C(O)c1ccccc1C(=O)Nc1cc2c(cc1Br)-c1ccccc1C2=O | > 100 µM (inactive) | 68.5 µM (inactive) | 64.4 µM (inactive) | > 100 µM (inactive) | 92.5 µM (inactive) | > 100 µM (inactive) | 48.1 µM (inactive) | > 100 µM (inactive) | > 100 µM (inactive) | 79.8 µM (inactive) | > 100 µM (inactive) | > 100 µM (inactive) | > 100 µM (inactive) | > 100 µM (inactive) | 6.61 µM (inactive) | > 100 µM (inactive) | > 100 µM (inactive) | > 100 µM (inactive) | > 100 µM (inactive) | > 100 µM (inactive)
CC[C@@]1(O)C(=O)OCc2c1cc1n(c2=O)Cc2c-1nc1ccc(O)cc1c2CC[Si](C)(C)C | 0.00366 µM (active) | 0.149 µM (active) | < 0.001 µM (active) | < 0.001 µM (active) | < 0.001 µM (active) | < 0.001 µM (active) | 0.0682 µM (active) | 0.0248 µM (active) | < 0.001 µM (active) | < 0.001 µM (active) | 0.0272 µM (active) | 0.00716 µM (active) | 0.0131 µM (active) | < 0.001 µM (active) | 0.0402 µM (active) | 0.00116 µM (active) | < 0.001 µM (active) | 0.0385 µM (active) | 0.00275 µM (active) | < 0.001 µM (active)
COC1=CC(=O)C(C2CC(=O)c3c(O)cc(O)cc3O2)=CC1=O (stereo not given) | 39.9 µM (inactive) | 17.9 µM (inactive) | 19 µM (inactive) | 16.1 µM (inactive) | 2 µM (inactive) | 17.1 µM (inactive) | 7.55 µM (inactive) | 19.1 µM (inactive) | 17.7 µM (inactive) | 1.96 µM (inactive) | 19.6 µM (inactive) | 25.9 µM (inactive) | 10.9 µM (inactive) | 20.7 µM (inactive) | 16.9 µM (inactive) | 16.8 µM (inactive) | 14.4 µM (inactive) | 16.9 µM (inactive) | 18.5 µM (inactive) | 16.4 µM (inactive)
CN(Cc1c2ccccc2cc2ccccc12)S(=O)(=O)c1ccc(-c2c3nc(c(-c4ccc(S(=O)(=O)N(C)Cc5c6ccccc6cc6ccccc56)cc4)c4ccc([nH]4)c(-c4ccc(S(=O)(=O)N(C)Cc5c6ccccc6cc6ccccc56)cc4)c4nc(c(-c5ccc(S(=O)(=O)N(C)Cc6c7ccccc7cc7ccccc67)cc5)c5ccc2[nH]5)C=C4)C=C3)cc1 | > 100 µM (inactive) | > 100 µM (inactive) | > 100 µM (inactive) | > 100 µM (inactive) | > 100 µM (inactive) | 30.3 µM (inactive) | 29.2 µM (inactive) | > 100 µM (inactive) | > 100 µM (inactive) | > 100 µM (inactive) | > 100 µM (inactive) | > 100 µM (inactive) | > 100 µM (inactive) | > 100 µM (inactive) | > 100 µM (inactive) | > 100 µM (inactive) | > 100 µM (inactive) | > 100 µM (inactive) | > 100 µM (inactive) | > 100 µM (inactive)
Oc1cccc2c1[nH]c1c(C3=C[C@@]4(O)CC/C=C\CCCCN5CC[C@@H]3[C@]3(CC6/C=C\CCCCN6[C@H]34)C5)nccc12 (stereo not given in full) | 2.04 µM (inactive) | 0.787 µM (active) | 1.15 µM (inactive) | 1.38 µM (inactive) | 0.667 µM (active) | 0.764 µM (active) | 0.226 µM (active) | 1.02 µM (active) | 0.966 µM (active) | 0.64 µM (active) | 1.07 µM (active) | 1.15 µM (inactive) | 0.61 µM (active) | 1.58 µM (inactive) | 1.66 µM (inactive) | 1.59 µM (inactive) | 0.804 µM (active) | 1.9 µM (inactive) | 1.68 µM (inactive) | 1.47 µM (inactive)
O=[N+]([O-])C1=Cc2c(O)ccc(O)c2C2OC=CC12 (stereo not given) | 21 µM (inactive) | 27 µM (inactive) | 26.4 µM (inactive) | 15.9 µM (inactive) | 8.59 µM (inactive) | 18.3 µM (inactive) | 22.3 µM (inactive) | 19.4 µM (inactive) | 18 µM (inactive) | 3.6 µM (inactive) | 23.5 µM (inactive) | 21.4 µM (inactive) | 34.1 µM (inactive) | 19.8 µM (inactive) | 44.8 µM (inactive) | 12.4 µM (inactive) | 17.4 µM (inactive) | 16.6 µM (inactive) | 15 µM (inactive) | 6.81 µM (inactive)
COc1ccc2oc(=O)cc(C)c2c1 | > 100 µM (inactive) | > 100 µM (inactive) | > 100 µM (inactive) | > 100 µM (inactive) | > 100 µM (inactive) | > 100 µM (inactive) | > 100 µM (inactive) | > 100 µM (inactive) | > 100 µM (inactive) | > 100 µM (inactive) | > 100 µM (inactive) | > 100 µM (inactive) | > 100 µM (inactive) | > 100 µM (inactive) | > 100 µM (inactive) | > 100 µM (inactive) | 0.0733 µM (active) | > 100 µM (inactive) | > 100 µM (inactive) | > 100 µM (inactive)
CCCCCCCC1(N=[N+]=[N-])C(=O)c2ccccc2N(C)C1=O (stereo not given) | 68.5 µM (inactive) | > 100 µM (inactive) | > 100 µM (inactive) | 61 µM (inactive) | 54.1 µM (inactive) | > 100 µM (inactive) | 22.5 µM (inactive) | > 100 µM (inactive) | > 100 µM (inactive) | > 100 µM (inactive) | > 100 µM (inactive) | 86.5 µM (inactive) | 56.1 µM (inactive) | 93.8 µM (inactive) | > 100 µM (inactive) | 69.8 µM (inactive) | 68.9 µM (inactive) | > 100 µM (inactive) | 57.8 µM (inactive) | 72.9 µM (inactive)
Cc1cc2c(c(/C=N/c3ccccc3O)c1)OC1(C=C2)Oc2ccccc2C(=O)N1C (stereo not given) | 21.7 µM (inactive) | 22.9 µM (inactive) | 14.9 µM (inactive) | 14.3 µM (inactive) | 27 µM (inactive) | 18.8 µM (inactive) | 11.8 µM (inactive) | 21.5 µM (inactive) | 15.5 µM (inactive) | 13.5 µM (inactive) | 13.2 µM (inactive) | 17.7 µM (inactive) | 21.2 µM (inactive) | 14.4 µM (inactive) | 18.3 µM (inactive) | 15.2 µM (inactive) | 1.57 µM (inactive) | 16.8 µM (inactive) | 14.1 µM (inactive) | 17.8 µM (inactive)
c1ncc(C23C4C5C6C4C2C6C53)[nH]1 (stereo not given) | > 100 µM (inactive) | > 100 µM (inactive) | > 100 µM (inactive) | > 100 µM (inactive) | > 100 µM (inactive) | > 100 µM (inactive) | > 100 µM (inactive) | > 100 µM (inactive) | > 100 µM (inactive) | > 100 µM (inactive) | > 100 µM (inactive) | > 100 µM (inactive) | > 100 µM (inactive) | > 100 µM (inactive) | > 100 µM (inactive) | > 100 µM (inactive) | > 100 µM (inactive) | > 100 µM (inactive) | > 100 µM (inactive) | > 100 µM (inactive)
N#C/C(C(=S)NCc1ccccc1)=C(/N)N1CCCC1 | > 100 µM (inactive) | > 100 µM (inactive) | > 100 µM (inactive) | > 100 µM (inactive) | > 100 µM (inactive) | > 100 µM (inactive) | 44.9 µM (inactive) | > 100 µM (inactive) | > 100 µM (inactive) | > 100 µM (inactive) | > 100 µM (inactive) | > 100 µM (inactive) | > 100 µM (inactive) | > 100 µM (inactive) | > 100 µM (inactive) | > 100 µM (inactive) | 25.1 µM (inactive) | > 100 µM (inactive) | > 100 µM (inactive) | > 100 µM (inactive)
CCOC(=O)C1(C(=O)OCC)CC(=O)[C@@]2(C1)OCC[C@H]1OC(=O)C[C@H]12 | > 100 µM (inactive) | > 100 µM (inactive) | > 100 µM (inactive) | > 100 µM (inactive) | > 100 µM (inactive) | > 100 µM (inactive) | > 100 µM (inactive) | > 100 µM (inactive) | > 100 µM (inactive) | > 100 µM (inactive) | > 100 µM (inactive) | > 100 µM (inactive) | > 100 µM (inactive) | > 100 µM (inactive) | > 100 µM (inactive) | > 100 µM (inactive) | > 100 µM (inactive) | > 100 µM (inactive) | > 100 µM (inactive) | > 100 µM (inactive)

— ChEMBL document CHEMBL1201862, “PubChem BioAssay data set” (2004)
